Test results taken from patent US12503440B2, “Nitroxoline derivative, preparation method therefor, and use thereof” (Jiangsu Yahong Meditech Co., Ltd., priority 2020, dated 2025).
Values after ≈ are worked out from the molar mass of the structure shown.

Legend:
Type in all cases: cell-based
[1] = system: Endothelial cell line HUVEC; experiment: Inhibitory activity on cells, CellTiter-Glo viability, 72 h; details: Homo sapiens
Excerpt: (§1) • HUVEC (purchased from Allcells Biological Technology (Shanghai) Co., Ltd.); UM-UC-3 (ATCC); LNCaP Clone FGC (ATCC); RM-1 (purchased from Nanjing Cobioer Biosciences Co., Ltd.) 2. Reagents • Endothelial cell complete medium (Allcells, H-004) • Medium RPMI1640 (ATCC, 30-2001) • Medium EMEM (ATCC, 30-2003) • Medium DMEM (Gibco, 12430-054) • Fetal bovine serum (Gibco, 10091148) • Penicillin-streptomycin double anti-body (Gibco, S110JV) • DPBS (Gibco, 14190-144) • CellTiter-Glo® kit (Promega, G7573) • Trypsin (0.25%), phenol red (Gibco, 25200-056) • DMSO (Sigma, D2650) 3. Instruments • Biological safety cabinet (Suzhou Antai Airtech Co., Ltd., BSC-1300A II) • Inverted microscope (Nikon, CKX53) • Automated cell counter (Life Technologies, countess II) • Multifunctional microplate reader (Biotek, H1FM) • Shaker (Hangzhou Allsheng Instruments Co., Ltd., OS-100) • GraphPad Prism 5.0 software • XLFIT 5.3 (Inforstack Shanghai Co., Ltd.) 4. Test Method
(§2) In this test method, the following experiments were carried out in a biological safety cabinet, and the specific steps are as follows: • (1) On the first day, the cells were seeded in a 96-well plate, and the previous medium was poured off. 5 mL of DPBS was added to wash the cells, and then removed by a pipette. Then, 1 mL of trypsin (0.25%) was added, and the plate was placed in a cell culture incubator at 37° C., 5% CO2 for digestion, and taken out after about 2 to 5 minutes. New corresponding medium was added, and pipetted to resuspend the cells evenly, and the cells were then counted with an automated cell counter.
(§3) The digestion was observed using an inverted microscope.
(§4) Regarding to HUVEC, the medium used was endothelial cell complete medium; regarding to UM-UC-3, the medium used was 89v % EMEM+10v % fetal bovine serum+1 v % penicillin-streptomycin double anti-body; regarding to LNcaP Clone FGC, the medium used was 89v % RPM11640+10v % fetal bovine serum+1 v % penicillin-streptomycin double anti-body; and regarding to RM-1, the medium used was 89v % DMEM+10v % fetal bovine serum+1v % penicillin-streptomycin double anti-body. • (2) HUVEC cells were seeded in columns 1 to 11 of a 96-well plate (Corning, Cat. No. 3610) at a density of 2000 cells per well in 100 μL of medium, and the medium free of cell was added to the wells of column 12. The other three types of cells were also seeded, wherein UM-UC-3 and RM-1 cells were seeded at a density of 3000 cells per well, and LNCap Clone FGC cells were seeded at a density of 5000 cells per well. Then, the plate was placed in an incubator at 37° C., 5% CO2 for 24 hours. • (3) On the second day, the compounds of the present invention and the reference drug nitroxoline (obtained according to the preparation method disclosed in the prior art) were diluted in gradient (2.5 folds, started at 100 μmol) to obtain 8 dose points (there were a total of 8 columns of wells; the first column of wells had the highest concentration, the concentration decreased in turn, and the last column of wells had the lowest concentration). 10 uL of the compound diluted in gradient was added to the 100 μL of cells in column 1 to column 10 with an 8-channel pipette. 10 μL of the corresponding medium containing 0.33v % DMSO was added to column 11 and column 12. The plate was incubated in an incubator at 37° C., 5% CO2 for 72 hours (note: column 11 was used as MAX well with cells and no compounds; and column 12 was used as MIN well with no cells and no compounds). • (4) After treating with the compounds of the present invention for 72 hours, the cell viability detection reagents in the above CellTiter-Glo® kit were added to the 96-well plate at 50 μL per well according to the instructions. […]

[2] = system: Bladder cancer cell line UM-UC-3; experiment: Inhibitory activity on cancer cells, CellTiter-Glo viability, 72 h; details: Homo sapiens, UMUC3, UM-UC-3, 72 h
Excerpt: as §1, §2, §3, §4

[3] = system: Mouse prostate cancer cell line RM-1; experiment: as above; details: RM-1, 72 h
Excerpt: as §1, §2, §3, §4

[4] = system: Prostate cancer cell line LNcaP Clone FGC; experiment: as above; details: Homo sapiens
Excerpt: as §1, §2, §3, §4

Acinetobacter baumannii = experiment: Bacteriostatic activity, micro broth dilution MIC (CLSI); details: 20 hours; for MIC50 / MIC90: clinical strains (carbapenem-resistant), CAMHB; for MIC50: read-out: Acinetobacter baumannii Clinical strain MIC50; for MIC90: read-out: Acinetobacter baumannii Clinical strain MIC90; for MIC: standard strain ATCC19606, CAMHB
Method: (§5) The purpose of this test is to determine the bacteriostatic activity of the compounds of the present invention against a representative panel of strains (Gram-negative bacteria: […] ATCC 25922, Acinetobacter baumannii ATCC 19606; Gram-positive bacteria: Staphylococcus aureus ATCC29213). Bacteriostatic activity was determined by minimum inhibitory concentration (MIC), MIC50, MIC90. This test was entrusted to Shanghai Junj Lab Co., Ltd. Except for the test drugs, all other test materials were provided by Shanghai Junj Lab Co., Ltd.
(§6) The tested bacteria were several strains of clinically isolated carbapenem-resistant Escherichia coli, several strains of carbapenem-resistant Acinetobacter baumannii, several strains of methicillin-resistant Staphylococcus aureus, and several strains of sensitive Staphylococcus aureus. Duplicate strains isolated from the same patient were eliminated. There were also three quality control strains Escherichia coli ATCC 25922, Acinetobacter baumannii ATCC 19606, and Staphylococcus aureus ATCC 29213. The activity test of each compound was carried out on one or more strains of each of the above test bacteria.
(§7) According to the recommendations of relevant documents of the American Clinical and Laboratory Standards Institute (CLSI), the micro broth dilution method was used to determine the MIC of the compounds of the present invention against clinically isolated strains. The culture solution free of drug was used as the test bacteria positive control, the culture solution free of bacterial solution was used as the drug negative control, and the culture solution free of drug solution and bacterial solution was used as the blank control. • 4.1 Formulation of antibacterial drug: All the compounds of the present invention were dissolved in DMSO. The drug concentration range was 128 mg/L-0.06 mg/L. Specific method: The compounds of the present invention were successively diluted by 1:1 with DMSO to obtain an intermediate series with a range of 25600 mg/L-12.5 mg/L. 30 μL of solution from each tube of the intermediate series of each compound was added to a 3 mL/tube series of single broth tube, and mixed well to obtain an intermediate series with a range of 256 mg/L to 0.125 mg/L. The diluted series solution was added to the drug susceptibility plate line by line, 50 μL of solution per well. All ranges became investigated ranges after being mixed with an equal volume of bacterial solution: 128-0.06 mg/L. • 4.2 Culture medium: The drug susceptibility test used cation adjusted Mueller-Hinton broth (CAMHB). • 4.3 Amount of inoculum: The test bacteria cultured overnight were adjusted to 0.5 McFarland turbidity by the direct colony suspension method, and diluted 100 folds, the final inoculum amount was 10^5 CFU/mL. • 4.4 Culture conditions: The test bacteria were cultured at 35±2° C. for 20 hours in air. 5. Interpretation and Judgment of Results
(§8) The drug susceptibility test results were interpretated by reference to CLSI 2019 edition M100 29th edition criteria.
(§9) The results of drug susceptibility test were statistically analyzed by WHONET version 5.6 software.
(§10) The culture solution free of bacterial solution was used as the drug negative control, and the culture solution free of drug solution and bacterial solution was used as the blank control, wherein no bacteria grew in both solutions.

Escherichia coli = experiment: as above; details: 20 hours; for MIC50 / MIC90: clinical strains (carbapenem-resistant), CAMHB; for MIC50: read-out: Escherichia coli Clinical strain MIC50; for MIC90: read-out: Escherichia coli Clinical strain MIC90; for MIC: standard strain ATCC25922, CAMHB
Method: as §5, §6, §7, §8, §9, §10

Staphylococcus aureus = experiment: as above; details: 20 hours; for MIC50 / MIC90: clinical strains (methicillin-resistant and sensitive), CAMHB; for MIC50: read-out: Staphylococcus aureus Clinical strain MIC50; for MIC90: read-out: Staphylococcus aureus Clinical strain MIC90; for MIC: standard strain ATCC29213, CAMHB
Method: as §5, §6, §7, §8, §9, §10

| Compound | IC50 [1] [µM] | IC50 [2] [µM] | IC50 [3] [µM] | IC50 [4] [µM] | MIC50 (Acinetobacter baumannii) [µg/mL] | MIC90 (Acinetobacter baumannii) [µg/mL] | MIC (Acinetobacter baumannii) [µg/mL] | MIC50 (Escherichia coli) [µg/mL] | MIC90 (Escherichia coli) [µg/mL] | MIC (Escherichia coli) [µg/mL] | MIC50 (Staphylococcus aureus) [µg/mL] | MIC90 (Staphylococcus aureus) [µg/mL] | MIC (Staphylococcus aureus) [µg/mL] |
| --- | --- | --- | --- | --- | --- | --- | --- | --- | --- | --- | --- | --- | --- |
| O=[N+]([O-])c1ccc(O)c2ncccc12 [Nitroxoline, 5-nitro-8-hydroxyquinoline] | 4.5 | 9.2 | 4.3 | 5.1 |  |  |  |  |  |  |  |  |  |
| O=[N+]([O-])c1ccc(O)c2nccc(C3CCCC3)c12 [Example 24, 4-cyclopentyl-5-nitroquinolin-8-ol] | 1.4 | 1.7 | 1 | 0.8 | 32 (≈ 124 µM) | 64 (≈ 248 µM) | 32 (≈ 124 µM) | 32 (≈ 124 µM) | 64 (≈ 248 µM) | 64 (≈ 248 µM) | 4 (≈ 15.5 µM) | 4 (≈ 15.5 µM) | 4 (≈ 15.5 µM) |
| O=[N+]([O-])c1ccc(O)c2nccc(C3CC3)c12 [Example 19, 4-cyclopropyl-5-nitroquinolin-8-ol] | 1.3 | 2.4 | 0.9 | 1.9 | 8 (≈ 34.7 µM) | 16 (≈ 69.5 µM) | 16 (≈ 69.5 µM) | 8 (≈ 34.7 µM) | 16 (≈ 69.5 µM) | 8 (≈ 34.7 µM) | 2 (≈ 8.69 µM) | 4 (≈ 17.4 µM) | 4 (≈ 17.4 µM) |
| CC1CCCCN1c1ccnc2c(O)ccc([N+](=O)[O-])c12 (stereo not drawn) [Example 13, 4-(2-methylpiperidin-1-yl)-5-nitroquinolin-8-ol] | 2.5 | 1.6 | 2 | 1.2 |  |  |  |  |  |  |  |  |  |
| O=[N+]([O-])c1ccc(O)c2nccc(-c3ccccc3)c12 [Example 9, 5-nitro-4-phenylquinolin-8-ol] | 1.3 | 0.5 | 1 | 1.7 | 128 (≈ 481 µM) | 128 (≈ 481 µM) |  | 128 (≈ 481 µM) | 128 (≈ 481 µM) |  | 4 (≈ 15 µM) | 8 (≈ 30 µM) | 4 (≈ 15 µM) |
| O=[N+]([O-])c1ccc(O)c2nccc(Cl)c12 [Example 2, 4-chloro-5-nitroquinolin-8-ol] | 3 | 2 | 3.1 | 4.9 | 4 (≈ 17.8 µM) | 8 (≈ 35.6 µM) |  | 8 (≈ 35.6 µM) | 8 (≈ 35.6 µM) | 8 (≈ 35.6 µM) | 4 (≈ 17.8 µM) | 4 (≈ 17.8 µM) |  |
| COc1ccnc2c(O)ccc([N+](=O)[O-])c12 [Example 16, 4-methoxy-5-nitroquinolin-8-ol] |  | 1.5 | 2.1 | 1.8 | 32 (≈ 145 µM) | 32 (≈ 145 µM) | 32 (≈ 145 µM) | 32 (≈ 145 µM) | 32 (≈ 145 µM) | 32 (≈ 145 µM) | 4 (≈ 18.2 µM) | 4 (≈ 18.2 µM) | 4 (≈ 18.2 µM) |
| CCOC(=O)N1CCN(c2ccnc3c(O)ccc([N+](=O)[O-])c23)CC1 [Example 22, ethyl 4-(8-hydroxy-5-nitroquinolin-4-yl)piperazine-1-carboxylate] | 3 | 4 | 2.7 | 2.7 |  |  |  |  |  |  |  |  |  |
